Assay results as given in patent US4868203A, “Bacterial substance and pharmaceutical composition thereof” (Kabushikikaisha Ueno Seiyaku Oyo Kenkyujo, priority 1986, dated 1989).
≈ marks a conversion by molar mass, not a printed value.

Tests used:
Pasteurella piscicida = experiment: microbe, parasite or virus in culture; type: cell-based; settings: Photobacterium damselae
[1] = Storage life of kamaboko, rot-proof property (Test Example 4); settings: 0.2%, pH 6.58, 30° C.
Experimental: Fish paste was prepared by adding NaCl (2.5%), chemical seasoning (0.8%), starch (5%) and ice water (10%) based on frozen surimi of walleye pollack (4 kg) and cutting by a silent cutter for 10 minutes. Predetermined amount of bacterial substance UFC-N11 based on the resulting fish paste (2 kg) was added and completely mixed in a small mixer for 5 minutes. About 100 g fish paste were enclosed with polyvinylidene chloride film (spread width:45 mm), boiled at 90° C. for 30 minutes, quenched, left overnight and then tested for rot-proof property.
The test was conducted as follows. As the complete package products, 10 pieces/group of kamaboko processed by casing method samples and, as the simplified package products, 10 pieces/group prepared by peeling off the casing under sterilized condition, cutting into 2 round slices (thickness: 10 mm) by a sterilized knife and placing in a sterilized plastic Petri dish. were placed in a thermostatic chamber at 30° C. and evaluated by macroscopically observation. The evaluation uses five-level scale shown below. The period until the average evaluation value of 1 is attained is defined as the storage life.

[2] = test system: Xanthomonas campestris PV citri

Row | Structure (SMILES) | MIC (Pasteurella piscicida; strain AT-1) | MIC (Pasteurella piscicida; strain AT-17) | MIC (Pasteurella piscicida; strain KGP86041) | MIC (Pasteurella piscicida; strain MEP35) | MIC (Pasteurella piscicida; strain MEP151) | MIC (Pasteurella piscicida; strain MS86115) | MIC (Pasteurella piscicida; strain MS86169) | MIC (Pasteurella piscicida; strain SP6275) | MIC (Pasteurella piscicida; strain SP6291) | MIC (Pasteurella piscicida; strain WP96) | Storage life, Complete package [1] | Storage life, simplified package [1] | Prevention ([2]; Streptomycin, concentration printed as 0 ppm, 14 days) | Damage ([2]; in vivo)
1 | CC1(C)S[C@@H]2[C@H](NC(=O)[C@H](N)c3ccccc3)C(=O)N2[C@H]1C(=O)O [Ampicillin] | > 10 µg/mL | > 10 µg/mL | 0.039 µg/mL (≈ 0.112 µM) | 0.039 µg/mL (≈ 0.112 µM) | > 10 µg/mL | 0.039 µg/mL (≈ 0.112 µM) | > 10 µg/mL | 0.039 µg/mL (≈ 0.112 µM) | > 10 µg/mL | 0.078 µg/mL (≈ 0.223 µM) |  |  |  | 
2 | O=C(O)c1ccc(/C=C/c2ccc([N+](=O)[O-])o2)cc1 [Nifurstyrenic acid] | 1.25 µg/mL (≈ 4.82 µM) | 0.31 µg/mL (≈ 1.2 µM) | 2.5 µg/mL (≈ 9.64 µM) | 2.5 µg/mL (≈ 9.64 µM) | 0.31 µg/mL (≈ 1.2 µM) | 0.31 µg/mL (≈ 1.2 µM) | 2.5 µg/mL (≈ 9.64 µM) | 0.63 µg/mL (≈ 2.43 µM) | 0.16 µg/mL (≈ 0.617 µM) | 0.31 µg/mL (≈ 1.2 µM) |  |  |  | 
3 | CCn1cc(C(=O)O)c(=O)c2cc3c(cc21)OCO3 [Oxolinic acid] | 1.25 µg/mL (≈ 4.79 µM) | 1.25 µg/mL (≈ 4.79 µM) | 0.078 µg/mL (≈ 0.299 µM) | 1.25 µg/mL (≈ 4.79 µM) | 1.25 µg/mL (≈ 4.79 µM) | 1.25 µg/mL (≈ 4.79 µM) | 0.078 µg/mL (≈ 0.299 µM) | 1.25 µg/mL (≈ 4.79 µM) | 0.039 µg/mL (≈ 0.149 µM) | 0.039 µg/mL (≈ 0.149 µM) |  |  |  | 
4 | C/C=C/C=C/C(=O)O [Sorbic acid, reference compound] |  |  |  |  |  |  |  |  |  |  | 12.0 days | 7.0 days |  | 
5 | [H]/N=C(/N)N[C@H]1[C@H](O)[C@@H](O)[C@H](O[C@@H]2O[C@@H](C)[C@](O)(C=O)[C@H]2O[C@@H]2O[C@@H](CO)[C@H](O)[C@@H](O)[C@@H]2NC)[C@@H](N/C(N)=N\[H])[C@@H]1O [Streptomycin, reference compound] |  |  |  |  |  |  |  |  |  |  |  |  | 30.3% | nil
